Measured values from patent publication US20210138025A1, “CATIONIC PEPTIDES WITH IMMUNOMODULATORY AND/OR ANTI-BIOFILM ACTIVITIES” (priority 2018, published 2021).
In brackets after ≈: the same amount, converted by molar mass. Like-named read-outs stand apart in the source and are kept apart here. Non-standard residues stand in square brackets, D forms with d. No end group written: not given here. Orn = NCCC[C@H](N)C(=O)O

Experiments:
[1] = test system: planktonic methicillin resistant S. aureus; assay: microbe, parasite or virus in culture; assay type: cell-based, Staphylococcus aureus; conditions: for MIC: Staphylococcus aureus
PBMCs = assay: Cytotoxicity towards PBMCs, lactate dehydrogenase (LDH) release assay (Tables 6, 7); conditions: SPOT synthesized peptide ~25 μM, PBMCs from 3 human donors; Table 6
S. aureus (MRSA SAP0017) = assay type: cell-based, Staphylococcus aureus; conditions: for % Biofilm Inhibition: SPOT synthesized control peptides, determined as in Table 5, Table 7
Procedure: Methods of assessment of anti-biofilm activity: MRSA S. aureus strain SAP0017 biofilm formation was initially analyzed using a static abiotic solid surface assay as described elsewhere (de la Fuente-Nunez et al., 2012) and shown graphically in FIG. 2. Dilutions (1/100) of overnight cultures were incubated in BM2 biofilm-adjusted medium [62 mM potassium phosphate buffer (pH 7), 7 mM (NH4)2SO4, 2 mM MgSO4, 10 μM FeSO4, 0.4% (wt/vol) glucose, 0.5% (wt/vol) Casamino Acids], or a nutrient rich medium such as Tryptic soy broth supplemented with 1% glucose, in polypropylene microtiter plates (Falcon, United States) in the absence (control) or presence of peptide. Peptide was added at time zero (prior to adding the diluted, overnight cultures) in varying concentrations, and the amount biofilm formation was recorded after 22-46 h incubation for most bacteria. To quantify biofilm growth, planktonic cells were removed and biofilm cells adhering to the side of the wells were stained with crystal violet, and absorbance at 595 nm was measured using a microtiter plate reader (Bio-Tek Instruments Inc., United States).

MCP-1 = MCP-1 chemokine induction in human PBMCs, ELISA (Tables 6, 7; FIGS. 6-9, 13); assay type: cell-based; conditions: SPOT synthesized control peptides, determined as in Table 6; Table 7
Procedure: Venous blood (20 ml) from healthy volunteers was collected in Vacutainer® collection tubes containing sodium heparin as an anticoagulant (Becton Dickinson, Mississauga, ON) in accordance with UBC ethical approval and guidelines. Blood was diluted 1:1 with complete RPMI 1640 medium and separated by centrifugation over a Ficoll-Paque® Plus (Amersham Biosciences, Piscataway, N.J., USA) density gradient. White blood cells were isolated from the buffy coat, washed twice in PBS and then resuspended in RPMI 1640 complete medium (containing 10% fetal bovine serum), and the number of peripheral blood mononuclear cells (PBMC) was determined by Trypan blue exclusion. PBMCs (5×10^5) were seeded into 12-well tissue culture dishes (Falcon; Becton Dickinson) at 0.75-1×10^6 cells/ml at 37° C. in 5% CO2. The above conditions were chosen to mimic conditions for circulating blood monocytes entering tissues at the site of infection via extravasation.
Following incubation of the cells under various treatment regimens, the tissue culture supernatants were centrifuged at 1000×g for 5 min, then at 10,000×g for 2 min to obtain cell-free samples. Supernatants were aliquoted and then stored at −20° C. prior to assay for various chemokines by capture ELISA (eBioscience and BioSource International Inc., CA, USA respectively)

IL-1β = assay: Suppression of LPS-induced IL-1β production in human PBMCs, ELISA (Tables 6, 7; FIGS. 6-9, 13); conditions: SPOT synthesized control peptides, determined as in Table 6; Table 7

| Compound | % Toxicity (LDH Release) (PBMCs) [%] | % Biofilm Inhibition (S. aureus (MRSA SAP0017)) [%] | MCPI production in PBMC (MCP-1) [pg/mL] | Fold Change in IL1-β relative to untreated LPS-stimulated cells (IL-1β) | also measured |
| --- | --- | --- | --- | --- | --- |
| CN[C@H](CC(C)C)C(=O)N[C@H]1C(=O)N[C@@H](CC(N)=O)C(=O)N[C@H]2C(=O)N[C@H]3C(=O)N[C@H](C(=O)N[C@H](C(=O)O)c4cc(O)cc(O)c4-c4cc3ccc4O)[C@H](O)c3ccc(c(Cl)c3)Oc3cc2cc(c3O[C@@H]2O[C@H](CO)[C@@H](O)[C@H](O)[C@H]2O[C@H]2C[C@](C)(N)[C@H](O)[C@H](C)O2)Oc2ccc(cc2Cl)[C@H]1O [Vancomycin] |  |  |  |  | MIC ([1]; read-out: MIC (μM) MHB): 0.34 µM (≈ 0.493 µg/mL); MIC ([1]; read-out: MIC (μM) TSB with 1% Glucose): 0.68 µM (≈ 0.986 µg/mL) |
| ALAIKVWIKILQ-NH2 [Imax-7, ALAIKVWIKILQ] | −1.1 |  |  |  |  |
| C10 (QLRVAWKRAWWA) [Peptide C10] |  | 87 | 1313 | 1.34 |  |
| C11 (KAVKKGRRAIVV) [Peptide C11] |  | 106 | 197 | 1.12 |  |
| C12 (VIRAKAVWGWVK) [Peptide C12] |  | 104 | 498 | 1.01 |  |
| C13 (VARAVQKRWRKK) [Peptide C13] |  | 105 | 221 | 1.55 |  |
| C14 (VKAKRWKWAQLA) [Peptide C14] |  | 104 | 209 | 1.2 |  |
| C15 (KRVQAKAWRLQR) [Peptide C15] |  | 100 | 297 | 0.94 |  |
| C16 (KKIRQWGKAAAW) [Peptide C16] |  | 100 | 571 | 0.99 |  |
| C17 (QQLRWKRVAKAI) [Peptide C17] |  | 100 | 1677 | 1.05 |  |
| C18 (IQIQLVKRWAVI) [Peptide C18] |  | 100 | 1768 | 0.92 |  |
| C19 (RLIQWGWKIWAV) [Peptide C19] |  | 99 | 738 | 0.94 |  |
| C20 (KLLGILKQAIVV) [Peptide C20] |  | 100 | 106 | 0.78 |  |
| C21 (VLLRVGARIVVG) [Peptide C21] |  | 99 | 345 | 0.83 |  |
| C22 (LLIAGKWWKLAI) [Peptide C22] |  | 103 | 153 | 0.83 |  |
| C23 (LKKIIVQAVGLI) [Peptide C23] |  | 97 | 653 | 0.95 |  |
| C24 (LKILIAQAKKGL) [Peptide C24] |  | 101 | 1280 | 1.4 |  |
| C25 (IGQVVLVKIKIA) [Peptide C25] |  | 98 | 1762 | 1.21 |  |
| C26 (VWLAQKIGKWIW) [Peptide C26] |  | 100 | 1153 | 1.41 |  |
| C27 (KKAIKVVAIGRI) [Peptide C27] |  | 102 | 50 | 1.06 |  |
| C28 (WIIRWIKIWLKI) [Peptide C28] |  | 72 | 444 | 0.88 |  |
| C29 (VIAKIVLLRAGL) [Peptide C29] |  | 100 | 1809 | 0.99 |  |
| C30 (RGARVIRWKLRR) [Peptide C30] |  | 100 | 1153 | 1.23 |  |
| GLIIKIIKKRLW-NH2 [IBFmax-15, GLIIKIIKKRLW] | 25.1 |  |  |  |  |
| GRVLKIVWRKGR-NH2 [Mmax-3, GRVLKIVWRKGR] | 4.2 |  |  |  |  |

| Compound | % Toxicity (LDH Release) (PBMCs) [%] | % Biofilm Inhibition (S. aureus (MRSA SAP0017)) [%] | MCPI production in PBMC (MCP-1) [pg/mL] | Fold Change in IL1-β relative to untreated LPS-stimulated cells (IL-1β) | also measured |
| --- | --- | --- | --- | --- | --- |
| IKWVLRKIVQII-NH2 [IBFmax-17, IKWVLRKIVQII] | 3.6 |  |  |  |  |
| IQLKLIWVKRKW-NH2 [MILBFmax5, IQLKLIWVKRKW] | −1.3 |  |  |  |  |
| IRILVLRKAIIV-NH2 [MILBFmax-9, IRILVLRKAIIV] | 23.9 |  |  |  |  |
| IVKKVKLIWGVK-NH2 [MILBFmax-13, IVKKVKLIWGVK] | −3.2 |  |  |  |  |
| IVKWIAQWKLVG-NH2 [Imax- 10] | −1 |  |  |  |  |
| KIWGLLKLGIAL-NH2 [Imax-6, KIWGLLKLGIAL] | 1.1 |  |  |  |  |
| KKQKKIWRRILV-NH2 [Mmax- 16] | 1.8 |  |  |  |  |
| KRLQWVKVKKIR-NH2 [BFmax-16, KRLQWVKVKKIR] | 0.6 |  |  |  |  |
| KVQIIKQLIAKK-NH2 [BFmax-7, KVQIIKQLIAKK] | −3.9 |  |  |  |  |
| KVVWWKVIIKVL-NH2 [BFmax-2, KVVWWKVIIKVL] | −3.5 |  |  |  |  |
| LKLKAILKIIRV-NH2 [MILBFmax-1, LKLKAILKIIRV] | 1.5 |  |  |  |  |
| QIIKVVWRAVII-NH2 [MILBFmax-8, QIIKVVWRAVII] | −2.3 |  |  |  |  |
| QQVKWWLIRWLA-NH2 [IBFmax-11, QQVKWWLIRWLA] | −0.1 |  |  |  |  |
| RARQIRWLRKRV-NH2 [Imin-4, RARQIRWLRKRV] | −4.9 |  |  |  |  |
| RQVRVKRWRARW-NH2 [Mmax- 18] | −4.9 |  |  |  |  |
| RVLIKWKKVIVV-NH2 [IBFmax-8, RVLIKWKKVIVV] | −1.8 |  |  |  |  |
| VARWKIIIAKLW-NH2 [BFmax-5, VARWKIIIAKLW] | 2 |  |  |  |  |
| VIKVLIKRWLKL-NH2 [BFmax-9, VIKVLIKRWLKL] | 7.4 |  |  |  |  |
| VKGAIKRGIWVK-NH2 [Imax- 5] | 3 |  |  |  |  |
| VQWIQIVVWRKR-NH2 [BFmax-6, VQWIQIVVWRKR] | −4.4 |  |  |  |  |
| VRLIVAVRIWRR-NH2 [Peptide 1018, VRLIVAVRIWRR, reference compound] | 21.8 |  |  |  | percentage of biofilm inhibited (S. aureus (MRSA SAP0017); SPOT-synthesized peptide, ~2.5 μM, MRSA SAP0017): 31%; MIC (μM) MHB ([1]; planktonic methicillin resistant S. aureus, broth microdilution in Mueller Hinton Broth (MHB), mean of three biological replicates): 4 µM; MIC (μM) TSB with 1% Glucose ([1]; planktonic methicillin resistant S. aureus, broth microdilution in Tryptic Soy Broth (TSB) supplemented with 1% glucose, mean of three biological replicates): >64 µM |
| VRLIVOrnVRIWRR (VRLIV[Orn]VRIWRR-NH2; N-terminus assumed; SMILES CC[C@H](C)[C@H](NC(=O)[C@H](CCCNC(=N)N)NC(=O)[C@@H](NC(=O)[C@H](CCCN)NC(=O)[C@@H](NC(=O)[C@@H](NC(=O)[C@H](CC(C)C)NC(=O)[C@H](CCCNC(=N)N)NC(=O)[C@@H](N)C(C)C)[C@@H](C)CC)C(C)C)C(C)C)C(=O)N[C@@H](Cc1c[nH]c2ccccc12)C(=O)N[C@@H](CCCNC(=N)N)C(=O)N[C@@H](CCCNC(=N)N)C(N)=O) [Peptide 1018-k30] |  |  |  |  | % Residual MRSA biofilm growth compared to untreated control (S. aureus (MRSA SAP0017); SPOT synthesized peptide, ~12.5 μM, clinical MRSA strain, crystal violet assay): 27% |
| VVGLRVRWVRLW-NH2 [Imin-3, VVGLRVRWVRLW] | −4.3 |  |  |  |  |
| WAVRALKVKWAL-NH2 [Imax-20, WAVRALKVKWAL] | −2.7 |  |  |  |  |
| WWIKIVVIRVRR-NH2 [IBFmax-13, WWIKIVVIRVRR] | −2 |  |  |  |  |
